# Assay results from patent publication US20240016718A1 (priority 2020, published 2024).
# Values joined by “and” are separate entries in the source; they are usually repeats but may differ in a detail not shown here. Equal values may be shown once.
# Columns and labels:
# [1] = test system: IL-1 alpha; set-up: species or system Rhino mice (RHJ/LeJ); settings: mouse, in vivo
# [2] = test system: sebocytes; set-up: species or system Rhino mice (RHJ/LeJ); settings: mouse, in vivo
# [3] = test system: fibroblasts; set-up: species or system Rhino mice (RHJ/LeJ); settings: mouse, in vivo
# [4] = test system: back skin of Rhino mice; settings: Rhino (RHJ/LeJ), mouse, in vivo
# [5] = test system: epidermis (back skin); settings: Rhino (RHJ/LeJ), mouse, in vivo
# [6] = test system: Substance P; set-up: species or system Rhino mice (RHJ/LeJ); settings: mouse, in vivo
# [7] = test system: dermis (inflammatory infiltrate); settings: Rhino (RHJ/LeJ), mouse, in vivo
# [8] = test system: keratinocytes; set-up: species or system Rhino mice (RHJ/LeJ); settings: mouse, in vivo
# [9] = test system: sebaceous glands; set-up: species or system Rhino mice (RHJ/LeJ); settings: mouse, in vivo
# [10] = test system: sebaceous lipids in sebum (fatty acid, squalene, cholesterol, wax esters, cholesteryl ester); set-up: species or system Rhino mice (RHJ/LeJ); settings: mouse, in vivo
# [11] = test system: utriculi; set-up: species or system Rhino mice (RHJ/LeJ); settings: mouse, in vivo
# [12] = test system: dorsal skin; settings: Rhino (RHJ/LeJ), mouse, in vivo
structure (smiles),measurement,setting,value
COc1ccc(-c2ccc3cc(C(=O)O)ccc3c2)cc1C12CC3CC(CC(C3)C1)C2 [Adapalene],Decrease of IL-1 alpha level versus vehicle,[1],96%
same,IL-1 alpha Concentration,[1],50.4 ng/g tissue and 40.3 ng/g tissue and 45.1 ng/g tissue and 47.8 ng/g tissue and 69.3 ng/g tissue and 36.4 ng/g tissue
same,IL-1 alpha level in back skin (mean±SD),[1],47.7±11.5 ng/g tissue
same,Ki67 positive cells per mm^2,[2],3722.1 cells per mm^2 and 4331.9 cells per mm^2 and 3916.9 cells per mm^2 and 3392.4 cells per mm^2 and 4299.5 cells per mm^2 and 2928.2 cells per mm^2
same,Increase of Ki67 positive cells in dermis (fibroblasts),[3],43%
same,Ki67 positive cells per mm^2,[3],1229.8 cells per mm^2 and 1499.9 cells per mm^2 and 2072.0 cells per mm^2 and 1218.1 cells per mm^2 and 1088.8 cells per mm^2 and 1181.9 cells per mm^2
same,Erythema mean score on dorsal skin,[4],0.3-1.1
same,Scaling mean score on dorsal skin,[4],0.5-1.3
same,Increase in epidermis thickness (hyperplasia),[5],+188%
same,Substance P concentration in back skin,[6],335.5 pg/g tissue and 414.1 pg/g tissue and 453.4 pg/g tissue and 409.8 pg/g tissue and 403.9 pg/g tissue and 491.3 pg/g tissue
same,Increase of inflammation of the dermis,[7],+23%
same,Increase of Ki67 positive cells in epidermis (keratinocytes),[8],30%
same,Ki67 positive cells per mm^2,[8],4411.7 cells per mm^2 and 4260.9 cells per mm^2 and 4248.9 cells per mm^2 and 3981.7 cells per mm^2 and 4121.7 cells per mm^2 and 4733.8 cells per mm^2
same,Increase of sebaceous glands surface versus vehicle group,[9],+82%
same,Induction of increased excretion of fatty acid to the epidermis,[10],did not
same,Decrease in the surface area of the utriculi,[11],94%
same,utriculi surface,[11],515.3 μm^2 and 545.4 μm^2 and 585.7 μm^2 and 515.2 μm^2 and 806.1 μm^2 and 527.4 μm^2 and 605.0 μm^2
same,Thickening of the dorsal skin as compared to the vehicle group,[12],+14%
